# Test results from patent US20020058042A1, “Non-IgA fc binding forms of the Group B streptococcal beta antigens” (priority 1996, published 2002).
# No end group written: not given here.
# System: binding of human IgA to the purified Cβ protein
# Test: ELISA inhibition assay: peptides blocking binding of human IgA to purified Cβ protein
# Conditions: synthetic peptide added with half-maximal dilution of IgA myeloma protein
# Experimental: Several synthetic peptides were made corresponding to the amino acid sequence contained within this region of the Cβ protein. Peptides were synthesized using NMP t-butoxycarbonyl chemistry on an ABI 430A peptide synthesizer (Applied Biosystems, Foster City, Calif.) and were deprotected. Peptides from a sample of the resin were removed from the resin by treatment with HF in the presence of anisole (0° C./1 h). Preparative purification of these peptides were performed using a C18 column (2.14 ID×30 cm) (Dynamax-Rainin, Woburn, Mass.). The peptides were quantitated by PTC amino acid analysis using Waters Picotag system (Waters, Milford, Mass.). The synthesized peptides eluted from the C18 column as a major peak consisting of usually 75-85% of the total elution profile. The amino acid composition of the purified peptides were in good agreement with the sequence which was used to synthesize the peptides. […] The plates were incubated at 37° C. for 1 h and the absorbance at 405 nm determined using an Elida-5 microtiter plate reader (Physica, New York, N.Y.). […] This was done to obtain a titer of the human IgA myeloma protein which would give a half-maximal reading in the ELISA assay. […] The dilution of the human IgA myeloma protein which gave the half maximal reading was then added. […] The plates were then processed and read as described. The percentage of inhibition would be calculated as follows: […]
sequence,measurement,value
NHQKSQVEKMAEQKG [SEQ ID NO: 10],inhibition of human IgA binding to purified Cβ,inhibited
